The values that follow come from US20220267271A1, “WNT ACTIVATORS AND METHODS OF USE” (MAYO FOUNDATION FOR MEDICAL EDUCATION AND RESEARCH, priority 2019, published 2022).

For one data set, the system named is S. typhimurium TA98. Description: Ames test, bacterial reverse mutation assay, TA98. Particulars: 1011 and 1015 at 400 μM, mean ± SD, n = 3. The arrangement: species or system Salmonella typhimuium. The procedure: (§1) Ames test: According to the OECD Guidelines For Testing Of Chemicals, experiments with the tested agents, positive and negative controls, were conducted in triplicates on 6 tester strains, S. typhimurium: TA98, TA100, TA1535, TA1537 and E. coli: wp2[pKM101]+wp2 uvrA mixed 1:2. Dimethyl sulfoxide (DMSO) was used as the vehicle control for all tester strains in mutagenicity assay with and without metabolic activation. Compounds with known mutagenic activity were used as the positive controls in mutagenicity assay without metabolic activation: 2-nitrofluorene (0.1 μg/plate) for TA98, 4-nitroquinoline N-oxide (0.1 μg/plate) for TA100, sodium azide (0.2 μg/plate) for TA1535, 9-aminoacridine (7.5 μg/plate) for TA1537, and 4-nitroquinoline N-oxide (0.1 μg/plate) for E. coli. 2-Aminoantracene in final concentration 0.4 μg/ml was used as the positive control (the solution of 2-aminoantracene in DMSO was prepared immediately before experiment) in test with metabolic activation. For each experiment tester strain cultures were grown overnight in Oxoid nutrient broth #2 at 37° C. with shaking at 235 rpm to a density of 1-2×10^9 colony forming units/ml (OD600˜1.5). The S9 mix, which is consist of 9000 g supernatant fraction of rat liver homogenate (S9 fraction), was prepared immediately prior to its use in experimental procedure.
(§2) The tester strain (10 μl of overnight culture) was mixed with the test agent (10 μl of the DMSO stock) and GM liquid medium (30 μl) or S9 mix (30 μl). Then, 200 μl of molten top agar supplemented with histidine/biotin (final concentration 0.05 mM) for S. typhimurium and tryptophan (final concentration 0.025 mM) for E. coli were added to the tube (top agar was kept at 44° C. to prevent hardening). The mixed suspension was poured onto the surface of a GM agar plate (2.0 ml of GM agar per plate). After the top agar solidified, the plates were inverted and incubated at 37° C. for 48 hours. The results were expressed as number of revertant colonies per plate. The final concentrations of the test compounds in the mutagenicity assay with all tester strains in both the presence and absence of S9 mix were 400 μM. All concentrations were tested in triplicates.
A general note: The Ames test uses bacterial strains that need an amino acid and regain growth without it when mutated back.

Another data set relates to LRP6. Description: Endogenous LRP6 expression in N2a cells by Western blotting. In kind it is cell-based. Particulars: 0.8 and 1.6 μM, 24 h. On the procedure:
(A) HT1080 cells stably transduced with human LRP6 with HA tag were treated with niciosamide (1 μM) and other compounds as noted (1 μM) for 24 hr. The levels of HA-LRP6 were examined by Western blots with anti-HA antibody. All samples were also probed with anti-actin antibody to verify equal loading. This experiment is a representative of two such experiments performed with similar data. (B) N2a cells were treated with 1015 and 1011 at the indicated concentrations for 24 h. The expression levels of LRP6, β-catenin and actin were examined by Western blotting. This experiment is a representative of three such experiments performed with similar data. (C) HEK293 cells were transfected with LRP6 siRNAs, and after 8 h incubation were further transfected with Super8XTOPFlash construct and β galactosidase-expressing vector. […] The luciferase activity was then measured and normalized to β-galactosidase activity. […]
Western blotting: Cells in 6-well plates were lysed in 0.5 ml of lysis buffer (phosphate-buffered saline containing 1% Triton X-100, 1× Proteinase inhibitor cocktail Complete, and 1 mM PMSF) at 4° C. for 15 min. Equal quantities of protein were subjected to SDS-PAGE under reducing conditions. […] The immunoreactive proteins were then detected using the ECL system or the Odyssey infrared imaging system (LI-COR). […]

A further data set concerns S. typhimurium TA1537. Description: Ames test, bacterial reverse mutation assay, TA1537. On the set-up: species or system Salmonella typhimuium. The settings on record: 1011 and 1015 at 400 μM, mean ± SD, n = 3. On the procedure:
as §1, §2

For another data set, the system named is PS19 mice. Description: Efficacy study in PS19 mice (tauopathy model). In kind it is in vivo. The settings on record: IP 15 mg/kg once daily, 8 weeks. The procedure: PS19 mice at 33 weeks of age were treated with 1015 (IP, 15 mg/kg) or vehicle [Kolliphor HS-physiological saline (20%:80%)] by a once daily dose schedule for 8 weeks (5 injections per week). (A) Body weight changes during the course of treatment were assessed. (B) The level of Wnt specific target neuroD1 in cortex was determined by qPCR. All the values are the average of from 5-7 mice with the SE values indicated by error bars.* P<0.05, * P<0.01 verse Non-Tg treated with vehicle or PS19 mice treated with vehicle.
(A) PS19 mice at 33 weeks of age were treated with 1015 (IP, 15 mg/kg) or vehicle [Kolliphor HS-physiological saline (20%:80%)] by a once daily dose schedule for 8 weeks (5 injections per week). The levels of tau phosphorylation (p-tau) and total tau in cortex were determined by Western blotting with p-tau antibody AT8, p-tau antibody AT180, and tau antibody HT7, respectively. (B) The intensities of p-tau bands were quantified and normalized to the corresponding signal for actin. The results represented in the histograms are shown as the mean±SE, n=5.
PS19 mice at 33 weeks of age were treated with 1015 (IP, 15 mg/kg) or vehicle [Kolliphor HS-physiological saline (20%:80%)] by a once daily dose schedule for 8 weeks (5 injections per week). (A-D) The levels of cytokines IL6, TNFa, TGF1b and IL1b in cortex were determined by qPCR. All the values are the average of from 5-7 mice with the SE values indicated by error bars. * P<0.05, * P<0.01, ** P<0.001.
1015 activates Wnt/β-catenin signaling and prevents body weight loss in PS19 mice: PS19 is a widely used tauopathy model which recapitulates many AD-related phenotypes. […] Therefore, the PS19 mouse model was used for efficacy studies. There was a noticeable drop in weight in all groups after initiation of daily dosing in each group, which is most likely a consequence of the sudden daily manipulation of the mice (FIG. 17 at A).

Setting [1] is: with metabolic activation (S9 mix).

Take `CC1CCCC(C)N1CCNC(=O)c1ccc(C(=O)Nc2ccccc2N)nc1` (centres unmarked) [Compound 1011]: the “Number of revertant colonies per plate, TA 98” value in the data set on S. typhimurium TA98 (setting [1]) was 1.7 ± 2.1 revertant colonies per plate; with S. typhimurium TA98 (without metabolic activation), 1.7 ± 1.5 revertant colonies per plate. Besides, the “endogenous LRP6 expression” value in the data set on LRP6 is on record as “significantly enhanced”. Besides, the “Number of revertant colonies per plate, TA1537” value in the data set with S. typhimurium TA1537 (setting [1]) is 0.0 ± 0.0 revertant colonies per plate; with S. typhimurium TA1537 (without metabolic activation), 0.7 ± 0.6 revertant colonies per plate.

As for `Nc1ccccc1NC(=O)c1ccc(C(=O)NCC2CCN2C2CCCC2)cn1` (centres unmarked) [Compound 1015], the body weight loss entry with PS19 mice (5 injections per week) is recorded as “significantly prevented”. Also, in the data set on PS19 mice (AT8 and AT180), the “tau phosphorylation in cortex” value is listed as “significantly suppresses”. Also, the “neuroD1 expression in brain” value in the data set on PS19 mice (cortex, qPCR) is “restored, but not over induced”. In addition, the “neuroinflammatory cytokine expression (IL6, TNFa, TGF1b, IL1b)” value with PS19 mice (cortex, qPCR) is “inhibited”. Besides, the results for the “Number of revertant colonies per plate, TA 98” value in the data set on S. typhimurium TA98 (setting [1]) and in the data set with S. typhimurium TA98 (without metabolic activation) were 0.7 ± 1.2 revertant colonies per plate and 1.3 ± 1.5 revertant colonies per plate, respectively. Further, the “endogenous LRP6 expression” value with LRP6 is reported as “significantly enhanced”. The “Number of revertant colonies per plate, TA1537” value with S. typhimurium TA1537 (setting [1]) and in the data set with S. typhimurium TA1537 (without metabolic activation) was 0.0 ± 0.0 revertant colonies per plate each time.
